Results on one compound are retold here after patent publication US20090047310A1, “Use of a griffonia extract, in particular griffonia simplicifolia, in a cosmetic or dermatological composition for mitigating pigmentation of skin and skin appendages” (priority 2005, published 2009).

This experiment relates to Normal human melanocytes. Description: Melanogenesis: quantity of melaninic pigments in cultured normal human melanocytes. The class given is cell-based. As to conditions: ten days culture. As to the method: Normal human melanocytes are cultured for ten days in the absence and in the presence of non-cytotoxic quantities of the dry extract. The quantity of melaninic pigments is evaluated by extraction using 0.5 N soda and optical density measurement.
The procedure is as before for the dry extract.
The procedure is as before for the dry extract using 5-HTP extracted from the seeds of Griffonia simplicifolia.

Structures are written as SMILES.

For the compound `N[C@@H](Cc1c[nH]c2ccc(O)cc12)C(=O)O` [5-HTP, 5-hydroxytryptophan], the “quantity of melanin produced by the melanocytes, % of the control” value (“quantity … % of the control” for short) (0.0016 mg/ml, p less than 0.05) was 93%; the “quantity … % of the control” value (0.008 mg/ml, p less than 0.01) turned out to be 89%; the “quantity … % of the control” value (0.04 mg/ml, p less than 0.01) is given as 80%.
